# Experimental data published in ChEMBL document CHEMBL1201861, “Genomics of Drug Sensitity in Cancer screening data, Wellcome Trust Sanger Institute”.
# What was measured:
# SNB-75 = experiment: cells; format: functional, cell-based, Homo sapiens; settings: Homo sapiens, SNB-75;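 also: cell viability assay measuring growth inhibition of human SNB-75 cells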
# Description: SANGER: Inhibition of human SNB75 cell growth in a cell viability assay.
# D-392MG = experiment: cells; format: functional, cell-based, Homo sapiens; settings: Homo sapiens, D-392MG
# SCC-3 = experiment: cells; format: functional, cell-based, Homo sapiens; settings: Homo sapiens, SCC-3;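 also: cell viability assay measuring inhibition of SCC-3 cell growth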
# Description: SANGER: Inhibition of human SCC-3 cell growth in a cell viability assay.
# LB1047-RCC = experiment: cells; format: functional, cell-based, Homo sapiens; settings: Homo sapiens, LB1047-RCC
# Description: SANGER: Inhibition of human LB1047-RCC cell growth in a cell viability assay.
# ES7 = experiment: cells; format: functional, cell-based, Homo sapiens; settings: Homo sapiens, ES7;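 also: growth inhibition of cultured human ES7 cells, read out as cell viability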
# Description: SANGER: Inhibition of human ES7 cell growth in a cell viability assay.
# NCCIT = experiment: SANGER: Inhibition of human NCCIT cell growth in a cell viability assay.; format: functional, cell-based; settings: Homo sapiens, NCCIT
# SK-PN-DW = experiment: cells; format: functional, cell-based, Homo sapiens; settings: Homo sapiens, SK-PN-DW;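 also: growth inhibition measured with a viability assay on these cells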
# Description: SANGER: Inhibition of human SK-PN-DW cell growth in a cell viability assay.
# LB771-HNC = experiment: cells; format: functional, cell-based, Homo sapiens; settings: Homo sapiens, LB771-HNC;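 also: growth inhibition of LB771-HNC human cells, read out with a cell viability assay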
# Description: SANGER: Inhibition of human LB771-HNC cell growth in a cell viability assay.
# COR-L279 = experiment: SANGER: Inhibition of human COR-L279 cell growth in a cell viability assay.; format: functional, cell-based; settings: Homo sapiens, COR-L279
# MC116 = experiment: cells; format: functional, cell-based, Homo sapiens; settings: Homo sapiens, MC116;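 also: growth inhibition of MC116 cells, read out with a cell viability assay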
# Description: SANGER: Inhibition of human MC116 cell growth in a cell viability assay.
# KALS-1 = experiment: cells; format: functional, cell-based, Homo sapiens; settings: Homo sapiens, KALS-1;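 also: growth inhibition of KALS-1 cells, determined with a cell viability assay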
# Description: SANGER: Inhibition of human KALS-1 cell growth in a cell viability assay.
# NB7 = experiment: cells; format: functional, cell-based, Homo sapiens; settings: Homo sapiens, NB7;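 also: growth inhibition of NB7 cells, read out with a cell viability assay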
# Description: SANGER: Inhibition of human NB7 cell growth in a cell viability assay.
# NCI-H719 = experiment: cells; format: functional, cell-based, Homo sapiens; settings: Homo sapiens, NCI-H719;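 also: growth inhibition of the cultured cell line, read out with a viability assay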
# Description: SANGER: Inhibition of human NCI-H719 cell growth in a cell viability assay.
# KG-1 = experiment: cells; format: functional, cell-based, Homo sapiens; settings: Homo sapiens, KG-1;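 also: growth inhibition of KG-1 cells, read out by a cell viability assay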
# Description: SANGER: Inhibition of human KG-1 cell growth in a cell viability assay.
# SK-N-DZ = experiment: cells; format: functional, cell-based, Homo sapiens; settings: Homo sapiens, SK-N-DZ;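 also: growth inhibition of the cancer cell line, read out through a viability assay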
# Description: SANGER: Inhibition of human SK-N-DZ cell growth in a cell viability assay.
# BL-41 = experiment: cells; format: functional, cell-based, Homo sapiens; settings: Homo sapiens, BL-41;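 also: growth inhibition of human BL-41 cells, read out with a cell viability assay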
# Description: SANGER: Inhibition of human BL-41 cell growth in a cell viability assay.
# KINGS-1 = experiment: cells; format: functional, cell-based, Homo sapiens; settings: Homo sapiens, KINGS-1;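 also: cell viability assay measuring suppression of KINGS-1 cell growth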
# Description: SANGER: Inhibition of human KINGS-1 cell growth in a cell viability assay.
# SNU-5 = experiment: cells; format: functional, cell-based, Homo sapiens; settings: Homo sapiens, SNU-5;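 also: cell viability readout used to measure growth inhibition in human NCI-SNU-5 cells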
# Description: SANGER: Inhibition of human NCI-SNU-5 cell growth in a cell viability assay.
# LOUCY = experiment: cells; format: functional, cell-based, Homo sapiens; settings: Homo sapiens, LOUCY;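 also: growth inhibition of human LOUCY cells, read out with a cell viability assay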
# Description: SANGER: Inhibition of human LOUCY cell growth in a cell viability assay.
# EW-13 = experiment: cells; format: functional, cell-based, Homo sapiens; settings: Homo sapiens, EW-13;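 also: growth inhibition of EW-13 cells, read out with a cell viability assay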
# Description: SANGER: Inhibition of human EW-13 cell growth in a cell viability assay.
# L-363 = experiment: cells; format: functional, cell-based, Homo sapiens; settings: Homo sapiens, L-363
# Description: SANGER: Inhibition of human L-363 cell growth in a cell viability assay.
# CESS = experiment: SANGER: Inhibition of human CESS cell growth in a cell viability assay.; format: functional, cell-based; settings: Homo sapiens, CESS
# C8166 = experiment: cells; format: functional, cell-based, Homo sapiens; settings: Homo sapiens, C8166;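 also: growth inhibition of human C8166 cells measured by a cell viability assay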
# Description: SANGER: Inhibition of human C8166 cell growth in a cell viability assay.
# HCE-4 = experiment: cells; format: functional, cell-based, Homo sapiens; settings: Homo sapiens, HCE-4;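 also: cell viability assay measuring inhibition of growth in the human HCE-4 cell line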
# Description: SANGER: Inhibition of human HCE-4 cell growth in a cell viability assay.
SMILES,IC50 (SNB-75) [nM],IC50 (SCC-3) [nM],IC50 (LB1047-RCC) [nM],IC50 (ES7) [nM],IC50 (NCCIT) [nM],IC50 (SK-PN-DW) [nM],IC50 (LB771-HNC) [nM],IC50 (MC116) [nM],IC50 (KALS-1) [nM],IC50 (NB7) [nM],IC50 (NCI-H719) [nM],IC50 (KG-1) [nM],IC50 (SK-N-DZ) [nM],IC50 (BL-41) [nM],IC50 (KINGS-1) [nM],IC50 (SNU-5) [nM],IC50 (LOUCY) [nM],IC50 (EW-13) [nM],IC50 (L-363) [nM],IC50 (CESS) [nM],further results
COc1cc(N2CCN(C)CC2)ccc1Nc1ncc2c(n1)N(C)c1ccccc1C(=O)N2C,7340,> 8000,> 8000,> 8000,4150,> 8000,> 8000,7220,7780,> 8000,> 8000,> 8000,> 8000,3650,> 8000,> 8000,> 8000,> 8000,> 8000,7750,IC50 (D-392MG): > 8000 nM; IC50 (COR-L279): 7990 nM; IC50 (C8166): > 8000 nM
COc1cc(-c2nn([C@H]3CC[C@H](N4CCN(C(C)=O)CC4)CC3)c3ncnc(N)c23)ccc1NC(=O)c1cc2ccccc2n1C,340,> 5120,143,> 5120,> 5120,> 5120,> 5120,856,2530,> 5120,> 5120,> 5120,> 5120,1690,> 5120,> 5120,> 5120,> 5120,> 5120,> 5120,IC50 (COR-L279): > 5120 nM; IC50 (HCE-4): 2340 nM; IC50 (C8166): > 5120 nM
OCCCNc1cc(-c2ccnc(Nc3cccc(Cl)c3)n2)ccn1,27.8,37.8,28.4,> 256,48.5,90.2,161,40.7,35.3,> 256,> 256,> 256,> 256,33.6,103,> 256,62.2,> 256,92.6,40.1,IC50 (COR-L279): 171 nM; IC50 (HCE-4): > 256 nM; IC50 (C8166): > 256 nM
Cc1ccc(-c2c(C(=O)CCl)n(CCCO)c3ncnc(N)c23)cc1,> 4000,> 4000,> 4000,> 4000,> 4000,> 4000,> 4000,> 4000,> 4000,> 4000,> 4000,> 4000,> 4000,> 4000,> 4000,> 4000,> 4000,> 4000,> 4000,> 4000,IC50 (COR-L279): > 4000 nM; IC50 (HCE-4): > 4000 nM; IC50 (C8166): > 4000 nM
C#Cc1cccc(Nc2ncnc3cc(OCCOC)c(OCCOC)cc23)c1 [ERLOTINIB],> 2000,> 2000,> 2000,> 2000,> 2000,> 2000,> 2000,> 2000,> 2000,> 2000,> 2000,> 2000,> 2000,> 2000,> 2000,> 2000,> 2000,> 2000,> 2000,> 2000,IC50 (D-392MG): > 2000 nM; IC50 (C8166): > 2000 nM
COc1cc2ncn(-c3cc(OCc4ccccc4S(C)(=O)=O)c(C#N)s3)c2cc1OC [GSK-319347A],> 5000,> 5000,> 5000,> 5000,> 5000,> 5000,> 5000,> 5000,> 5000,> 5000,> 5000,> 5000,> 5000,> 5000,> 5000,> 5000,> 5000,> 5000,> 5000,> 5000,IC50 (D-392MG): > 5000 nM; IC50 (COR-L279): > 5000 nM; IC50 (C8166): > 5000 nM
COc1cc2ncn(-c3cc(OCc4ccccc4C(F)(F)F)c(C(N)=O)s3)c2cc1OC [GW843682X],97.9,48.7,25.4,> 256,59.9,38.7,60,36.4,22.5,> 256,> 256,> 256,37.4,10.9,149,52,15.9,> 256,81.2,13.2,IC50 (COR-L279): 99.2 nM; IC50 (HCE-4): 13.9 nM; IC50 (C8166): > 256 nM
CC(=O)O[C@H]1C(=O)[C@@]2(C)[C@H]([C@H](OC(=O)c3ccccc3)[C@]3(O)C[C@H](OC(=O)[C@H](O)[C@@H](NC(=O)c4ccccc4)c4ccccc4)C(C)=C1C3(C)C)[C@]1(OC(C)=O)CO[C@@H]1C[C@@H]2O [PACLITAXEL],15.4,12,25.1,> 102,17.7,11.1,25.3,2.89,3.08,> 102,> 102,> 102,73.1,9.34,23.6,17,7.75,> 102,13.5,7.37,IC50 (COR-L279): 9.99 nM; IC50 (HCE-4): 7.67 nM; IC50 (C8166): > 102 nM
N[C@@H](CSC(c1ccccc1)(c1ccccc1)c1ccccc1)C(=O)O [S-TRITYL-L-CYSTEINE],2770,1260,2600,> 5120,2390,1350,1950,709,1320,> 5120,> 5120,> 5120,3140,1640,2160,> 5120,480,> 5120,1730,606,IC50 (COR-L279): 2860 nM; IC50 (HCE-4): 469 nM; IC50 (C8166): > 5120 nM
CC[C@H](CO)Nc1nc(NCc2ccccc2)c2ncn(C(C)C)c2n1 [SELICICLIB],> 16000,14300,> 16000,> 16000,7550,> 16000,> 16000,> 16000,> 16000,> 16000,> 16000,> 16000,> 16000,> 16000,> 16000,> 16000,> 16000,> 16000,> 16000,> 16000,IC50 (D-392MG): > 16000 nM; IC50 (COR-L279): 12300 nM; IC50 (C8166): > 16000 nM
CCN(CC)CCNC(=O)c1c(C)[nH]c(/C=C2\C(=O)Nc3ccc(F)cc32)c1C [SUNITINIB],> 8000,2830,1820,> 8000,> 8000,> 8000,> 8000,4430,> 8000,> 8000,> 8000,6030,4670,2910,> 8000,> 8000,> 8000,> 8000,4810,7100,IC50 (COR-L279): > 8000 nM; IC50 (HCE-4): 3790 nM; IC50 (C8166): > 8000 nM
